Results reported in patent publication US20110086089A1, “USE OF P27KIP1 FOR THE PREVENTION AND TREATMENT OF HEART FAILURE” (UNIVERSITY HEALTH NETWORK, priority 2008, published 2011).

Key:
[1] = tested on: p27 phosphorylation at S83 and T187 in cardiomyocytes; assay: p27 phosphorylation at S83 and T187 in Ang II-treated cardiomyocytes (Western blot); assay type: cell-based, rat; conditions: Ang II 4 h; lentiviruses 72 h; DMAT 20 μM pre-incubated 30 min; TAT-conjugated CK2-alpha-prime 2.5 μg/ml 1 h
Method: FIG. 2 is a series of graphs and blots showing Ang II triggers CK2-alpha-prime-dependent phosphorylation of p27 on S83 and T187 in cardiomyocytes. (A) p27 is a substrate of CK2-alpha-prime. […] In vitro kinase assays employing recombinant wt.p27 (1 μg) or phosphorylation site mutants of p27 as substrates were incubated with recombinant CK2-alpha-prime/beta (200 ng). Aliquots of the reaction mixtures were resolved on SDS-PAGE, electrotransferred to nitrocellulose membranes, and the amount of incorporated radioactive [^32P}-label into p27 was quantified with a PhosphorImager and ImageJ software. Individual membranes were probed with anti-CK2-alpha-prime, anti-p27 (input), or phosphorylation site specific antibodies to p27. […] Samples were resolved on SDS-PAGE, transferred to nitrocellulose-membranes, and the amount of incorporated radioactive label into histones was quantified with a PhosphorImager and ImageJ. The input amount of each CK2-alpha-prime and p27 protein used in the kinase reaction mixtures was monitored by immunoblot analysis employing anti-His. […] Biochemically fractionated extracts corresponding to 4×10^5 cells per lane were analyzed by immunoblotting employing antibodies as indicated on the left. […]

[2] = tested on: p27 degradation in cardiomyocytes; assay: Ang II-triggered p27 degradation / p27 half-life in cardiomyocytes; assay type: cell-based, rat; conditions: for Ang II-triggered decrease in p27 protein levels / p27 destabilization: cardiomyocytes + Ang II, lactacystin 10 μM 30 min pre-treatment, DMAT 30 minutes prior, lentivirus 72 h; for p27 degradation: proteasome inhibitors, conditions not given
Method: FIG. 3 is a series of graphs, blots and cell stainings showing essential function of CK2-alpha-prime-mediated p27 degradation for cardiomyocyte hypertrophy. […] Cells were transduced with TAT-conjugated wt.p27 (2.5 μg/ml), phosphorylation resistant p27deltaPi, or phosphomimicking mutant p27.S83D/T187D for 1 h before Ang II addition for 4 h. Isotypic anti-CK2-alpha-prime immunocomplex kinase assays were performed employing histone H1 substrate. Input levels of transduced TAT-fusion proteins were determined prior to Ang II addition by immunoblotting of total cell extracts. Mean±s.e.m., n=3. *P<0.01 vs unstimulated cells. **P<0.01 vs Ang II. #P<0.01. endog, endogenous. (B) Pharmacological inhibition of the 26S-proteasome abrogates Ang II-triggered p27 degradation. […] Alternatively, lactacystin-treated cardiomyocytes were transduced with TAT-conjugated CK2-alpha-prime or p27deltaPi (2.5 μg/ml) for 1 h prior to Ang II addition. Anti-CK2-alpha-prime immunocomplex kinase assays were performed employing histone H1 as substrate. Western blots of total cell extracts (50 μg/lane) were probed with antibodies as indicated on the left. (C) Inhibition of CK2-alpha-prime prevents Ang II-induced degradation of p27. […] Cells were then chased with excess cold methionine in the presence of Ang II and cycloheximide (100 μg/ml) to block protein synthesis for the indicated timepoints. Alternatively, cells were incubated with DMAT for 30 minutes prior to Ang II stimulation. p27 was immunoprecipitated employing anti-p27 covalently linked to protein A-agarose. Aliquots of total cell extracts were resolved on SDS-PAGE, transferred to nitrocellulose-membranes, autoradiographed (right panel), and quantified with ImageJ software (left panel). (B, C) One typical result of two independent experiments is shown. (D) Subcellular localization of p27 and S83 phosphorylated p27 in Ang II-stimulated cardiomyocytes. Cells were transduced with lentiviruses encoding siCK2-alpha-prime or siControl for 72 h prior to Ang II treatment for the indicated timepoints. […] De novo protein synthesis was determined by in vivo labeling of cardiomyocytes with [^35S]methionine (right panel). Cell size was determined by indirect immunofluorescence microscopy employing anti-tropomyosin staining and ImageJ. Expression levels of endogenous CK2-alpha-prime and p27 were determined by immunoblotting of total cell extracts employing specific antibodies as indicated. Ectopic SR.CK2-alpha-prime and SR.p27 were detected using anti-His. […]
For metabolic labeling, cardiomyocytes were pulsed-labeled with 100 μCi/ml [^35S]methionine/cysteine (1000 Ci/mmol; EasyTag, NEN) for 2 h in methionine/cysteine-deficient medium (DME, ICN). […] The amount of incorporated radioactive label was determined with ImageJ software. […]

WT mice = assay: Reversal of established Ang II-dependent cardiac hypertrophy (16 days infusion, injections from day 8); assay type: in vivo; conditions: daily i.p. injections 20 mg/kg initiated at day 8
Source text: FIG. 10 is the experimental treatment protocol. To examine the therapeutic effect of p27 on established cardiac hypertrophy, p27 injections were initiated at 8 days after Ang II-infusion.
To examine the effect of transduced p27 on established cardiac hypertrophy, mice were chronically infused with Ang II for 16 days and intraperitoneally injected recombinant TAT-conjugated p27ΔPi and beta-galactosidase (β-Gal) proteins starting from day 8. After 16 days of Ang II-infusion, the heart/body weight ratio were increased by 45% compared to saline-infused controls (FIG. 11B; group 7 vs. group 6). […] Transduced p27ΔPi regressed the increase in heart size by 47% as compared to β-Gal control injections (group 3 vs group 4). In Ang II-infused mice treated with p27ΔPi values of left ventricular posterior wall and interventricular septum thickness, LVEDD, LVESD, FS and EF were not significant different compared to saline-infused mice. Thus, p27 can reverse established compensated cardiac hypertrophy without exerting any deleterious effect on cardiac function.
Spontaneously beating cardiomyocytes from heart ventricles of neonatal rats were cultured and subjected to treatment with angiotensin II (Ang II). DMAT (2-dimethylamino-4,5,6,7-tetrabromo-1H-benzimidazol), DMSO, lactacystin and LLM were obtained from Calbiochem. Ang II was purchased from Sigma. Animal usage was in accordance with approved institutional animal care guidelines. Age-matched male WI C57BL/6 and p27^−/− mice were used in this study. For results shown in FIGS. 1 to 9: Ang II was chronically infused subcutaneously by osmotic pumps (model 2000, Alzet) at a dose of 1.4 μg/kg per minute for 14 days. TAT.proteins (10 mg/kg) were injected intraperitoneally once daily for 14 days. For results shown in FIGS. 10 to 12: Ang II was chronically infused subcutaneously by osmotic pumps (model 2000, Alzet) at a dose of 0.7 μg/kg per minute for 16 days. TAT.proteins (20 mg/kg) were injected intraperitoneally once daily for 8 days starting at day 8. Thoracic aortic banding (TAB) and pressure gradient measurements were performed as described^39.
After fixation in paraformaldehyde (4% in PBS, pH 7.4), a transverse midsection (3 μm thickness) was stained with Alexa Fluor® 488-conjugated wheat germ agglutinin for cross sectional measurements. Cardiomycoyte area was determined by planimetry employing ImageJ software. A total of 200 cells were counted in each group.

CN(C)c1nc2c(Br)c(Br)c(Br)c(Br)c2[nH]1 [DMAT, 2-dimethylamino-4,5,6,7-tetrabromo-1H-benzimidazol, reference compound]
S83/T187 phosphorylation of p27 in cardiomyocytes [1]: abolished | Ang II-triggered decrease in p27 protein levels / p27 destabilization [2]: prevented p27 destabilization

CC(C)C[C@H](NC(=O)[C@H](Cc1ccccc1)NC(=O)c1cnccn1)B(O)O [PS-341]
p27 degradation [2]: inhibit p27 degradation

CC(=O)N[C@@H](CSC(=O)[C@]1([C@@H](O)C(C)C)NC(=O)[C@H](C)[C@@H]1O)C(=O)O [lactacystin]
Ang II-triggered decrease in p27 protein levels / p27 destabilization [2]: sensitive to proteasome inhibition

TAT-β-Gal: recombinant TAT-conjugated beta-galactosidase, control injections
Heart weight (WT mice; Ang II infusion 16 days (0.7 μg/kg per minute)): 159 ± 7.3 mg | FS (WT mice; Ang II infusion 16 days): 44 ± 1.6 % | Heart weight/body weight (WT mice; Ang II infusion 16 days): 6.9 ± 0.2 mg/g | IVSD (WT mice; Ang II infusion 16 days): 1.4 ± 0.1 mm | LVEDD (WT mice; Ang II infusion 16 days): 3.8 ± 0.1 mm | LVEF (WT mice; Ang II infusion 16 days): 78 ± 3.7 % | LVESD (WT mice; Ang II infusion 16 days): 2.7 ± 0.2 mm | PWD (WT mice; Ang II infusion 16 days): 1.4 ± 0.1 mm

alpha-methylomuralide
p27 degradation [2]: inhibit p27 degradation
